The assay concerns the target T1, TbCLK1 (Trypanosoma brucei, UniProt Q382U0).
T1 construct: gene Tb11.01.4230; full-length, recombinant from E. coli (pET100)
Put plainly: in vitro kinase assay (γ-32P-ATP, myelin basic protein), […] min pre-incubation with […] ATP; also target engagement in intact parasites by competition with probe […]. The class given is biochemical.

T1 sequence (Q382U0 entry or part of it): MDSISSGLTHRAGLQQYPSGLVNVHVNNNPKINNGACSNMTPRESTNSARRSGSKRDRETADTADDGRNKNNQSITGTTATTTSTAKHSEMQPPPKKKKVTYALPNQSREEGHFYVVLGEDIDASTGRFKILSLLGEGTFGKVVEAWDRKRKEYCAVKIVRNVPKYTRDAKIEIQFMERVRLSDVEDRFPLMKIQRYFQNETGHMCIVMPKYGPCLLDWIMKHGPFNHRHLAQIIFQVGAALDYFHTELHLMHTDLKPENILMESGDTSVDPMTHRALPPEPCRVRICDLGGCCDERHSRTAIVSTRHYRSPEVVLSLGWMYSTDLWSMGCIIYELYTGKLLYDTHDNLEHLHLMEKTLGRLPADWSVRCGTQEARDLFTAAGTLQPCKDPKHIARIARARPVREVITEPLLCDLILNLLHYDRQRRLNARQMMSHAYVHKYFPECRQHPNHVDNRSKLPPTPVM

A word on the IC50: it is the concentration needed to halve the response being measured. `COc1cc(O)c2c(c1)[C@H]1O[C@@H]1C[C@H](O)[C@H](O)C(=O)/C=C\C[C@H](C)OC2=O` [compound 1, hypothemycin]: the IC50 came to 150 nM.

(Values after publication PMC3707081, “Hypothemicin, a fungal natural product, identifies therapeutic targets in Trypanosoma brucei” (eLife, 2013).)
